Read-outs that look alike come from different tables or passages of the source.
How the values were obtained:
[1] = tested on: Leimyosarcoma tumour cell line SK-UT-1B; experiment: Inhibition of the proliferation of cultivated human tumour cells (Test 2); type: cell-based; settings: SK-UT-1B cells, 48 hours' incubation, then 14C-thymidine for a further 24 hours, inhibition of incorporated 14C-thymidine, read-out: Inhibition of SKUT-1B-proliferation IC50
Method: Inhibition of the Proliferation of Cultivated Human Tumour Cells
Cells of the Leimyosarcoma tumour cell line SK-UT-1B (obtained from the American Type Culture Collection (ATCC)) were cultivated in Minimum Essential Medium with non-essential amino acids (Gibco), supplemented with sodium pyruvate (1 mmol), glutamine (2 mmol) and 10% foetal calf serum (Gibco) and harvested during the log-growth phase. Then the SK-UT-1B cells were added to Cytostar® multi-well plates (Amersham) at a density of 4000 cells per well and incubated overnight in an incubator. Various concentrations of the compounds (dissolved in DMSO; final concentration: <1%) were added to the cells. After 48 hours' incubation ^14C-thymidine (Amersham) was added to each well and incubation was continued for a further 24 hours. The quantity of ^14C-thymidine incorporated into the tumour cells in the presence of the inhibitor and representing the number of cells in the S phase was measured in a Wallace 1450 Microbeta Liquid Scintillation Counter. IC50 values for the inhibition of proliferation (=inhibition of incorporated ^14C-thymidine) were calculated, correcting for the background radiation. All the measurements were done twice.
The Table which follows contains the results obtained in in vitro test 2: […]

Row | Compound | IC50 ([1]; Homo sapiens, Skut1B) | melting point | IC50 [1]
1 | O=C1Nc2ccc([N+](=O)[O-])cc2/C1=C(/Nc1ccc(CCN2CCOCC2)cc1)c1ccccc1 [Example 133, (Z)-3-{1-[4-(2-morpholinoethyl)-phenylamino]-1-phenyl-methylidene}-5-nitro-2-indolinone] | 480 nM | 304 to 306 °C | –
2 | O=C1Nc2ccc([N+](=O)[O-])cc2/C1=C(/Nc1ccc(CN2CCCCC2)cc1)c1ccccc1 [Example 170, (Z)-3-[1-(4-piperidinomethyl-phenylamino)-1-phenyl-methylidene]-5-nitro-2-indolinone] | 220 nM | 242 to 243 °C | –
3 | CN(C)CCN(c1ccc(N/C(=C2\C(=O)Nc3ccccc32)c2ccccc2)cc1)S(C)(=O)=O [Example 188] | – | – | 150 nM
4 | CN(C)Cc1ccc(N/C(=C2\C(=O)Nc3ccc([N+](=O)[O-])cc32)c2ccccc2)cc1 [Example 117, (Z)-3-[1-(4-dimethylaminomethyl-phenylamino)-1-phenyl-methylidene]-5-nitro-2-indolinone] | 340 nM | 264 to 265 °C | –
5 | CN(C)CCc1ccc(N/C(=C2\C(=O)Nc3ccc([N+](=O)[O-])cc32)c2ccccc2)cc1 [Example 134, (Z)-3-{1-[4-(2-dimethylamino-ethyl)-phenylamino]-1-phenyl-methylidene}-5-nitro-2-indolinone] | 560 nM | 238 to 240 °C | –
6 | Cc1ccc(/C(Nc2ccc(CN(C)C)cc2)=C2/C(=O)Nc3ccc([N+](=O)[O-])cc32)cc1 [Example 212, (Z)-3-[1-(4-dimethylaminomethyl-phenylamino)-1-(p-tolyl)-methylidene]-5-nitro-2-indolinone] | – | 274 to 276 °C | –
7 | CCOC(=O)CCCN(c1ccc(N/C(=C2\C(=O)Nc3ccccc32)c2ccccc2)cc1)S(C)(=O)=O [Example 195, (Z)-3-{1-[4-(N-(3-ethoxycarbonyl-propyl)-N-methylsulphonyl-amino)-phenylamino]-1-phenyl-methylidene}-2-indolinone] | – | 265 to 268 °C | –
8 | O=C1Nc2ccccc2/C1=C(/Nc1ccc(S(=O)(=O)N2CCCC2)cc1)c1ccccc1 [Example 397, (Z)-3-{1-[4-(pyrrolidin-1-ylsulphonyl)-phenylamino]-1-phenyl-methylidene}-2-indolinone] | – | 293 to 294 °C | –
9 | CC(=O)NCc1ccc(N/C(=C2\C(=O)Nc3ccc([N+](=O)[O-])cc32)c2ccccc2)cc1 [Example 143, (Z)-3-[1-(4-acetylaminomethyl-phenylamino)-1-phenyl-methylidene]-5-nitro-2-indolinone] | – | 345 to 346 °C | –
10 | CN(C)Cc1ccc(N/C(=C2\C(=O)Nc3ccc([N+](=O)[O-])cc32)c2ccc(Cl)cc2)cc1 [Example 222, (Z)-3-[1-(4-dimethylaminomethyl-phenylamino)-1-(4-chlorophenyl)-methylidene]-5-nitro-2-indolinone] | – | 311 °C | –
11 | Cl.Cl.O=C1Nc2ccc([N+](=O)[O-])cc2/C1=C(/Nc1ccc(CN2CCNCC2)cc1)c1ccccc1 | – | > 370 °C | –
12 | CC(=O)N(C)c1ccc(N/C(=C2\C(=O)Nc3ccccc32)c2ccccc2)cc1 [Example 47, (Z)-3-{1-[4-(N-acetyl-N-methyl-amino)-phenylamino]-1-phenyl-methylidene}-2-indolinone] | – | 287 to 288 °C | –
13 | CCCC(=O)N(CCN(C)C)c1ccc(N/C(=C2\C(=O)Nc3ccccc32)c2ccccc2)cc1 [Example 343, (Z)-3-{1-[4-(N-(2-dimethylaminoethyl)-N-propylcarbonyl-amino)-phenylamino]-1-phenyl-methylidene}-2-indolinone] | – | 268 to 270 °C | –
14 | O=C1Nc2ccc([N+](=O)[O-])cc2/C1=C(/Nc1ccc(N2CCOCC2)cc1)c1ccccc1 [Example 80, (Z)-3-[1-(4-morpholinophenylamino)-1-phenyl-methylidene]-5-nitro-2-indolinone] | – | > 300 °C | –
15 | CC(=O)N(C)c1ccc(N/C(=C2\C(=O)Nc3ccc([N+](=O)[O-])cc32)c2ccccc2)cc1 [Example 98, (Z)-3-{1-[4-(N-acetyl-N-methyl-amino)-phenylamino]-1-phenyl-methylidene}-5-nitro-2-indolinone] | – | 305 to 307 °C | –
16 | CN(C)CCNc1ccc(N/C(=C2\C(=O)Nc3ccccc32)c2ccccc2)cc1 [Example 338, (Z)-3-{1-[4-(2-dimethylamino-ethylamino)-phenylamino]-1-phenyl-methylidene}-2-indolinone] | – | 258 to 260 °C | –

Row | Compound | IC50 ([1]; Homo sapiens, Skut1B) | melting point | IC50 [1]
17 | CN(C)CC(=O)NCc1ccc(N/C(=C2\C(=O)Nc3ccc([N+](=O)[O-])cc32)c2ccccc2)cc1 [Example 142, (Z)-3-[1-(4-dimethylaminomethylcarbonylaminomethyl-phenylamino)-1-phenyl-methylidene]-5-nitro-2-indolinone] | – | 272 to 273 °C | –
18 | CS(=O)(=O)Nc1ccc(N/C(=C2\C(=O)Nc3ccccc32)c2ccccc2)cc1 [Example 185, (Z)-3-[1-(4-methylsulphonylamino-phenylamino)-1-phenyl-methylidene]-2-indolinone] | – | 299 to 301 °C | –
19 | NC(CCO)(CCO)c1ccc(N/C(=C2\C(=O)Nc3ccc([N+](=O)[O-])cc32)c2ccccc2)cc1 [Example 240, (Z)-3-{1-[4-(Bis-(2-hydroxyethyl)-aminomethyl)-phenylamino]-1-phenyl-methylidene}-5-nitro-2-indolinone] | – | 196 to 198 °C | –
20 | COc1ccccc1N/C(=C1\C(=O)Nc2ccccc21)c1ccccc1 [Example 4, (Z)-3-[1-(2-methoxy-phenylamino)-1-phenyl-methylidene]-2-indolinone] | – | 237 °C | –
21 | CCS(=O)(=O)N(CC(=O)N(C)CCN(C)C)c1ccc(N/C(=C2\C(=O)Nc3ccc([N+](=O)[O-])cc32)c2ccccc2)cc1 [Example 296, (Z)-3-{1-[4-(N—((N-(2-dimethylaminoethyl)-N-methyl-amino)-carbonylmethyl)-N-ethylsulphonyl-amino)-phenylamino]-1-phenyl-methylidene}-5-nitro-2-indolinone] | – | 117 °C | –
22 | COC1CCN(Cc2ccc(N/C(=C3\C(=O)Nc4ccc([N+](=O)[O-])cc43)c3ccccc3)cc2)CC1 [Example 171, (Z)-3-{1-[4-(4-methoxypiperidinomethyl)-phenylamino]-1-phenyl-methylidene}-5-nitro-2-indolinone] | – | 204 to 206 °C | –
23 | C[C@@H](N)c1ccc(N/C(=C2\C(=O)Nc3ccc([N+](=O)[O-])cc32)c2ccccc2)cc1.Cl | – | 230 to 235 °C | –
24 | O=C1Nc2ccccc2/C1=C(/Nc1cccc(NC(=O)C(F)(F)F)c1)c1ccccc1 [Example 33, (Z)-3-[1-(3-trifluoroacetylamino-phenylamino)-1-phenyl-methylidene]-2-indolinone] | – | 273 to 276 °C | –
25 | CS(=O)(=O)N(CCN1CCOCC1)c1cccc(N/C(=C2\C(=O)Nc3ccccc32)c2ccccc2)c1 [Example 325, (Z)-3-{1-[3-(N-(2-morpholinoethyl)-N-methylsulphonyl-amino)-phenylamino]-1-phenyl-methylidene}-2-indolinone] | – | 177 to 179 °C | –
26 | O=C1Nc2ccccc2/C1=C(/Nc1ccc(OCCCN2CCCCC2)cc1)c1ccccc1 [Example 287, (Z)-3-{1-[4-(3-piperidinopropyloxy)-phenylamino]-1-phenyl-methylidene}-2-indolinone] | – | 223 to 225 °C | –
27 | O=C(CN1CCOCC1)Nc1ccc(N/C(=C2\C(=O)Nc3ccc([N+](=O)[O-])cc32)c2ccccc2)cc1 [Example 96, (Z)-3-[1-(4-morpholinomethylcarbonylamino-phenylamino)-1-phenyl-methylidene]-5-nitro-2-indolinone] | – | 265 to 267 °C | –
28 | CC(=O)NCc1ccc(/C(Nc2ccc(CCNC(=O)OC(C)(C)C)cc2)=C2/C(=O)Nc3ccc([N+](=O)[O-])cc32)cc1 [Example 157, (Z)-3-{1-[4-(2-tert.butoxycarbonylamino-ethyl)-phenylamino]-1-(4-acetylaminomethyl-phenyl)-methylidene}-5-nitro-2-indolinone] | – | 94 °C (dec.) | –
29 | CN(C)CC(=O)Nc1ccc(N/C(=C2\C(=O)Nc3ccccc32)c2ccccc2)cc1 [Example 41, (Z)-3-[1-(4-dimethylaminomethylcarbonylamino-phenylamino)-1-phenyl-methylidene]-2-indolinone] | – | 234 to 236 °C | –
30 | CCNCc1ccc(N/C(=C2\C(=O)Nc3ccc([N+](=O)[O-])cc32)c2ccccc2)cc1 [Example 160, (Z)-3-[1-(4-ethylaminomethyl-phenylamino)-1-phenyl-methylidene]-5-nitro-2-indolinone] | – | 220 to 223 °C | –
31 | COCC(=O)NCc1ccc(N/C(=C2\C(=O)Nc3ccccc32)c2ccccc2)cc1 [Example 76, (Z)-3-[1-(4-methoxymethylcarbonylaminomethyl-phenylamino)-1-phenyl-methylidene]-2-indolinone] | – | 178 to 180 °C | –

Source: US6855710B2, “Substituted indolines with an inhibitory effect on various kinases and complexes of CDKs” (Boehringer Ingelheim Pharma KG, priority 1998, dated 2005)
